Experimental data reported in patent US20050152835A1, “Technetium-99M glucarate methods of use for monitoring tissues” (priority 2003, published 2005).
Values belong to the compound of their own block, whether it stands above or below them.

Tests used:
adenosine A1 receptor = target: T1, adenosine A1 receptor (Rattus norvegicus, UniProt P25099); assay: Adenosine receptor-mediated cardioprotection in rat hearts with ischemia-reperfusion, assessed by 99mTc-glucarate imaging; assay type: in vivo
T1 construct: from tissue; host or cells: living rat, heart (myocardium) in vivo
T1 sequence (P25099 1-326): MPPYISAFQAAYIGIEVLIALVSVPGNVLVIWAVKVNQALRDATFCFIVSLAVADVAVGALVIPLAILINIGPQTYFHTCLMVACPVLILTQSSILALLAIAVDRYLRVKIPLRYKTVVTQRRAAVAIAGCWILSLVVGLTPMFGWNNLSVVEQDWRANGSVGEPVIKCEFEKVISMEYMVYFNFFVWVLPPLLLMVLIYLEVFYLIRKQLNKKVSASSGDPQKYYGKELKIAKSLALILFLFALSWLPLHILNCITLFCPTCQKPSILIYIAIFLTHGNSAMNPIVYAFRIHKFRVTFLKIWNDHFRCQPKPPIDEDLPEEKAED
Procedure: Experimental groups in this example included: Group-I (IR30, n=11): Animals subjected to a treatment of 30-min regional myocardial ischemia and 30-min reperfusion by ligating and releasing the left coronary artery (LCA). Group-II: (IPC Group, n=6): Rats were preconditioned with a sequence of 6 cycles of 4-min LCA occlusion and 4-min re-flow; 10 min later, the rats underwent a 30-min LCA occlusion followed by 30-min re-flow. Group-III (CCPA, n=6): rat chests were opened for the equivalent time for IPC in Group-II. Ten minutes prior to 30-min LCA occlusion and 30-min reperfusion, CCPA (40 μg/kg) was intravenously injected with 5 cycles of 4-min infusion and 4-min no infusion. Group-IV (SPT, n=5): animals subjected to IPC as the protocol in Group-II, SPT (10 mg/kg) was intravenously infused 2-min before and during subsequent ischemia-reperfusion.
Treatments in this example consisted of control (IR30, n=8): no preconditioning; equivalent open-chest time; IPC (n=6): 4-min LCA occlusion, 4-min reflow, 5 cycles; CCPA (n=6): 4-min IV infusion, 4-min no infusion, 5 cycles; SPT (n=4): IPC first, SPT IV infusion 2 min before and during LCA occlusion and re-flow.

[1] = system: plasmocytoma (localized myeloma); assay: Scintigraphy of a patient with plasmocytoma of T8; assay type: in vivo, human; details: for scan finding at diagnosis: patient with lytic lesion of T8, posterior view
Procedure: A patient complaining of invalidation pain in the spine (mid-thorax) for about two months. Peak of monoclonal IgG-k in serum. Bence-Jones protein in urine. Spine CT. lytic lesion of T8, with soft tissue infiltration. […] Uptake was obvious in the early images, 15 and 30 min p.i., late acquisition, 6 hr p.i., made the tracer uptake much more obvious.

MCF7/S tumor xenograft = assay: FASTSPECT dynamic imaging and tumor washout kinetics, drug-sensitive xenograft; assay type: in vivo, SCID mice
Procedure: (§1) Tumor cell lines used. MCF7/S: Cells are parental, drug (doxorubicin) sensitive, breast carcinoma cells. MCF7/D40: Cells were generated in vitro by successive culturing parental MCF7 cells in slowly increasing concentrations of doxorubicin with a total selection time of 31 months. Twenty-eight SCID mice were studied. MCF7/S or MCF7/D40 tumors were grown for 10-14 days after subcutaneous injection of 1×10^6 cells into the right thigh. Groups of mice with the xenografted tumors included: (MCF7/S group: MIBI: n=9; GLA: n=8) and (MCF7/D40 group: MIBI: n=6; GLA: n=5).
(§2) The dynamic imaging system SPECT consisted of 24 small modular gamma cameras. Each modular camera consists of a 10 cm×10 cm NaI(Tl) scintillation crystal, 4 square (5 cm×5 cm) Hamamatsu photomultiplier tubes. The system included a cylindrical aperture with twenty four 1-mm diameter pinholes drilled in the aperture. A point source in the center of the field of view is projected simultaneously to the center of each camera. Total magnification is 3.5 in a 3.0 cm×3.2 cm×3.2 cm field of view. The spatial resolution of the system is about 1.0 mm, with a sensitivity of 13.3 cps/μCi.
(§3) ^99mTc-GLA or ^99mTc-MIBI (5-8 mCi, 185-296 MBq) was injected via a jugular vein catheter. Dynamic images were acquired for 2 hours. Twenty-four projections were obtained, one from each camera. Each scintillation event within the camera's NaI crystal was registered as the digitized outputs from the camera's four photomultiplier tubes. The four photomultiplier outputs were compared to a 20-bit look-up table derived from a calibration procedure that involved moving a collimated source across the camera face.
(§4) Tumor image reconstruction was performed using 100 iterations of the maximum-likelihood expectation-maximization (ML-EM) algorithm. Using SlicerDicer software, three-dimensional images were computed to provide images in a 33×49×49 voxels format, and generate tomographic transaxial, coronal and sagittal slices with one-pixel thickness (1.0 mm). Regions of interest (ROI) over the tumors were created and applied to the dynamic images for determining time-activity curves. The percent washout rate relative to the peak uptake of the tumors were calculated.

MCF7/D40 tumor xenograft = assay: FASTSPECT dynamic imaging and tumor washout kinetics, drug-resistant (Pgp positive) xenograft; assay type: in vivo, SCID mice; details: for time window after injection in which tumor could be localized/visualized: then activity dropped to background
Procedure: as §1, §2, §3, §4

MCF7/S tumors = assay: Biodistribution in mice bearing MCF7/S tumors; assay type: in vivo, SCID mice
Procedure: as §1, §3
(§5) Tumors and organs were harvested and counted in a dose calibrator. The percent injected dose per gram (% ID/g) was calculated. Membrane preparations made from MCF7/S and MCF7/D40 tumors were immunoblotted with the mouse monoclonal antibody C219 against Pgp followed by a secondary antibody, which was detected by chemiluminescence. […] No immunodetectable MDR1 Pgp was presented in MCF7/S cells.

MCF7/D40 tumors = assay: Biodistribution in mice bearing MCF7/D40 tumors; assay type: in vivo, SCID mice
Procedure: as §1, §3, §5

breast cancer = details: cited from earlier work
MCF7/D40 cells = assay: Drug resistance of MCF7/D40 cells relative to MCF7/S; assay type: cell-based, human
[2] = Table 2, MCF7/S mice, 2 hours after injection
[3] = Table 4 (Example 3), MCF7/S mice
[4] = Table 2, MCF7/D40 mice, 2 hours after injection
[5] = Table 4 (Example 3), MCF7/D40 mice

effect on cardioprotection of ischemic preconditioning (IPC) (adenosine A1 receptor; 40 μg/kg i.v. instead of IPC, before 30-min LCA occlusion and 30-min reperfusion): simulated
SMILES: OC[C@H]1O[C@@H](n2cnc3c(NC4CCCC4)nc(Cl)nc32)[C@H](O)[C@@H]1O [CCPA, 2-chloro-N6-cyclopentyladenosine]

effect on cardioprotection of ischemic preconditioning (IPC) (adenosine A1 receptor; 10 mg/kg i.v. infusion after IPC, before and during ischemia-reperfusion): blocked
SMILES: Cn1c(=O)c2[nH]c(-c3ccc(S(=O)(=O)O)cc3)nc2n(C)c1=O [SPT, 8-(p-sulfophenyl)-theophylline]

SMILES: O.O.O=P([O-])([O-])CP(=O)([O-])[O-].[99Tc+4] [^99mTc-MDP]
scan finding at diagnosis [1]: focally increased uptake corresponding to T8 | scan finding after about 1 year of stabilization and external radiotherapy ([1]; posterior view): inhomogeneous tracer distribution, without clear focally increased uptake

SMILES: [C-]#[N+]CC(C)(C)OC.[C-]#[N+]CC(C)(C)OC.[C-]#[N+]CC(C)(C)OC.[C-]#[N+]CC(C)(C)OC.[C-]#[N+]CC(C)(C)OC.[C-]#[N+]CC(C)(C)OC.[Tc] [^99mTc-sestamibi, reference compound]
two-hour fractional washout (% peak activity) (MCF7/S tumor xenograft): 50.2±5.3% | time after injection until which tumor stayed visualized/detectable (MCF7/S tumor xenograft; FASTSPECT, 120 min acquisition): 120 min | two-hour fractional washout (% peak activity) (MCF7/D40 tumor xenograft): 71.7±1.7% | time window after injection in which tumor could be localized/visualized (MCF7/D40 tumor xenograft): 2 to 4 min | time window after injection in which tumor could be localized/visualized (MCF7/D40 tumor xenograft; listed as 99mTc-MIBI): 2 to 3 min | Biodistribution, blood (MCF7/S tumors; [2]): 0.06 ± 0.01 % ID/gm | Biodistribution, heart (MCF7/S tumors; [2]): 10.61 ± 0.89 % ID/gm | Biodistribution, kidneys (MCF7/S tumors; [2]): 21.32 ± 2.03 % ID/gm | Biodistribution, liver (MCF7/S tumors; [2]): 7.02 ± 1.01 % ID/gm | Biodistribution, lung (MCF7/S tumors; [2]): 0.95 ± 0.16 % ID/gm | Biodistribution, muscle (MCF7/S tumors; [2]): 1.37 ± 0.12 % ID/gm | Biodistribution, tumor (MCF7/S tumors; [2]): 0.64 ± 0.07 % ID/gm | Biodistribution, blood (MCF7/S tumors; [3]): 0.06 ± 0.01 % ID/g | Biodistribution, heart (MCF7/S tumors; [3]): 10.61 ± 0.89 % ID/g | Biodistribution, kidneys (MCF7/S tumors; [3]): 21.32 ± 2.03 % ID/g | Biodistribution, liver (MCF7/S tumors; [3]): 7.02 ± 1.01 % ID/g | Biodistribution, lung (MCF7/S tumors; [3]): 0.95 ± 0.16 % ID/g | Biodistribution, muscle (MCF7/S tumors; [3]): 1.37 ± 0.12 % ID/g | Biodistribution, tumor (MCF7/S tumors; [3]): 0.64 ± 0.07 % ID/g | Tumor/Blood ratio (MCF7/S tumors; [3]): 13.97 ± 2.89 | Tumor/Muscle ratio (MCF7/S tumors; [3]): 0.48 ± 0.05 | Biodistribution, blood (MCF7/D40 tumors; [4]): 0.07 ± 0.01 % ID/gm | Biodistribution, heart (MCF7/D40 tumors; [4]): 9.78 ± 1.65 % ID/gm | Biodistribution, kidneys (MCF7/D40 tumors; [4]): 17.71 ± 3.13 % ID/gm | Biodistribution, liver (MCF7/D40 tumors; [4]): 7.67 ± 1.52 % ID/gm | Biodistribution, lung (MCF7/D40 tumors; [4]): 0.61 ± 0.12 % ID/gm | Biodistribution, muscle (MCF7/D40 tumors; [4]): 1.09 ± 0.32 % ID/gm | Biodistribution, tumor (MCF7/D40 tumors; [4]): 0.27 ± 0.05 % ID/gm | Biodistribution, blood (MCF7/D40 tumors; [5]): 0.07 ± 0.01 % ID/g | Biodistribution, heart (MCF7/D40 tumors; [5]): 9.84 ± 1.39 % ID/g | Biodistribution, kidneys (MCF7/D40 tumors; [5]): 19.63 ± 3.48 % ID/g | Biodistribution, liver (MCF7/D40 tumors; [5]): 8.29 ± 1.43 % ID/g | Biodistribution, lung (MCF7/D40 tumors; [5]): 0.61 ± 0.10 % ID/g | Biodistribution, muscle (MCF7/D40 tumors; [5]): 1.08 ± 0.27 % ID/g | Biodistribution, tumor (MCF7/D40 tumors; [5]): 0.27 ± 0.05 % ID/g | Tumor/Blood ratio (MCF7/D40 tumors; [5]): 3.93 ± 0.41 | Tumor/Muscle ratio (MCF7/D40 tumors; [5]): 0.31 ± 0.05 | scan finding at diagnosis [1]: negative for bone marrow infiltration | negative predictive value (breast cancer; in vivo): 83.4% | overall institutional sensitivity for breast cancer detection (breast cancer; in vivo): 75.4% | overall institutional specificity for breast cancer detection (breast cancer; in vivo): 82.7% | positive predictive value (breast cancer; in vivo): 74.5% | sensitivity for tumors under 1 cm in size (breast cancer; tumors under 1 cm): 48.2%

SMILES: COc1cccc2c1C(=O)c1c(O)c3c(c(O)c1C2=O)C[C@@](O)(C(=O)CO)C[C@@H]3O[C@H]1C[C@H](N)[C@H](O)[C@H](C)O1 [doxorubicin]
resistance of MCF7/D40 compared to MCF7/S (MCF7/D40 cells): 40 fold
